ChEMBL document CHEMBL1201862, “PubChem BioAssay data set” (2004)
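In this assay, cells in 96-well plates receive the compound at five concentrations for 48 hours. Endpoints are linearly interpolated between the surrounding concentrations. At the GI50, growth is halved.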 Calls of active or inactive are those of the source. Rule as the data show it: active = GI50 up to about 1.1 µM and inactive = higher.

Key:
Experiment in all cases: NCI anticancer screen, dose series, 48 h
[1] = tested on: A549
[2] = tested on: SK-MEL-2
[3] = tested on: K562
[4] = tested on: NCI/ADR-RES
[5] = tested on: HOP-92
[6] = tested on: HOP-62
[7] = tested on: SNB-75
[8] = tested on: MDA-MB-231
[9] = tested on: SK-MEL-28
[10] = tested on: ACHN
[11] = tested on: OVCAR-8
[12] = tested on: OVCAR-3
[13] = tested on: DU-145
[14] = tested on: OVCAR-4
[15] = tested on: NCI-H226
[16] = tested on: 786-0
[17] = tested on: RPMI-8226
[18] = tested on: M14
[19] = tested on: BT-549
[20] = tested on: OVCAR-5

Structure (SMILES)	GI50 [1]	GI50 [2]	GI50 [3]	GI50 [4]	GI50 [5]	GI50 [6]	GI50 [7]	GI50 [8]	GI50 [9]	GI50 [10]	GI50 [11]	GI50 [12]	GI50 [13]	GI50 [14]	GI50 [15]	GI50 [16]	GI50 [17]	GI50 [18]	GI50 [19]	GI50 [20]
CC(C)Cc1ccc(C(C)CC2=CCC(CN(C)C)C2=O)cc1 (centres undefined)	18.3 µM (inactive)	13.2 µM (inactive)	2.25 µM (inactive)	16.9 µM (inactive)	2.95 µM (inactive)	21.1 µM (inactive)	15.8 µM (inactive)	10.5 µM (inactive)	9.31 µM (inactive)	16.7 µM (inactive)	7.41 µM (inactive)	11.2 µM (inactive)	16.6 µM (inactive)	20.4 µM (inactive)	16.7 µM (inactive)	1.79 µM (inactive)	0.333 µM (active)	4.7 µM (inactive)	19.5 µM (inactive)	16.1 µM (inactive)
O=C(CCN1CCCCC1)N1CCc2c([nH]c3ccccc23)C1c1cccnc1 (centres undefined)	> 93.3 µM (inactive)	18.3 µM (inactive)	30.8 µM (inactive)	> 100 µM (inactive)	29.7 µM (inactive)	> 82.2 µM (inactive)	58.3 µM (inactive)	34.1 µM (inactive)	19.5 µM (inactive)	> 85.5 µM (inactive)	69.3 µM (inactive)	> 100 µM (inactive)	> 100 µM (inactive)	> 91 µM (inactive)	> 91.8 µM (inactive)	38.6 µM (inactive)	39.7 µM (inactive)	22.9 µM (inactive)	> 61.8 µM (inactive)	> 73.3 µM (inactive)
COc1cc(O)ccc1C(=S)SC	38.8 µM (inactive)	> 100 µM (inactive)	52.8 µM (inactive)	38.9 µM (inactive)	34.2 µM (inactive)	> 100 µM (inactive)	> 100 µM (inactive)	16.2 µM (inactive)	> 100 µM (inactive)	68.2 µM (inactive)	58.7 µM (inactive)	62.4 µM (inactive)	> 100 µM (inactive)	52 µM (inactive)	16 µM (inactive)	> 100 µM (inactive)	21.8 µM (inactive)	> 100 µM (inactive)	> 100 µM (inactive)	> 100 µM (inactive)
N#Cc1nc(COCc2ccccc2)oc1N	> 100 µM (inactive)	> 100 µM (inactive)	49.7 µM (inactive)	> 100 µM (inactive)	> 100 µM (inactive)	> 100 µM (inactive)	> 100 µM (inactive)	> 100 µM (inactive)	> 100 µM (inactive)	> 100 µM (inactive)	> 100 µM (inactive)	> 100 µM (inactive)	> 100 µM (inactive)	> 100 µM (inactive)	> 100 µM (inactive)	> 100 µM (inactive)	74.8 µM (inactive)	> 100 µM (inactive)	29.6 µM (inactive)	> 100 µM (inactive)
O=C1c2cc([N+](=O)[O-])sc2C(=O)c2ccsc21	1.83 µM (inactive)	1.06 µM (active)	0.0216 µM (active)	0.824 µM (active)	0.201 µM (active)	0.227 µM (active)	1.4 µM (inactive)	0.266 µM (active)	0.283 µM (active)	0.281 µM (active)	0.465 µM (active)	0.0392 µM (active)	0.273 µM (active)	0.48 µM (active)	1.36 µM (inactive)	0.449 µM (active)	0.206 µM (active)	0.258 µM (active)	0.438 µM (active)	1.69 µM (inactive)
CC(=O)OC[C@@H](OC(C)=O)[C@@H](OC(C)=O)[C@H]1OC[C@@H]2C[C@H]([C@H]1OC(C)=O)N(Cc1ccccc1)O2	> 100 µM (inactive)	> 100 µM (inactive)	> 100 µM (inactive)	> 100 µM (inactive)	> 100 µM (inactive)	> 100 µM (inactive)	> 100 µM (inactive)	> 100 µM (inactive)	> 100 µM (inactive)	> 100 µM (inactive)		> 100 µM (inactive)	> 100 µM (inactive)	> 100 µM (inactive)	> 100 µM (inactive)	> 100 µM (inactive)	> 100 µM (inactive)	> 100 µM (inactive)	> 100 µM (inactive)	> 100 µM (inactive)
CC(C)(C)[C@H]1CCC2(OCCO2)[C@](O)(CCCO)C1	> 100 µM (inactive)	> 100 µM (inactive)	> 100 µM (inactive)	> 100 µM (inactive)	> 100 µM (inactive)	> 100 µM (inactive)	> 100 µM (inactive)	> 100 µM (inactive)	> 100 µM (inactive)	> 100 µM (inactive)	> 100 µM (inactive)	> 100 µM (inactive)	> 100 µM (inactive)	> 100 µM (inactive)	> 100 µM (inactive)	> 100 µM (inactive)	> 100 µM (inactive)	> 100 µM (inactive)	> 100 µM (inactive)	> 100 µM (inactive)
CSC(=S)N/N=C/c1ccccc1	43.2 µM (inactive)	> 100 µM (inactive)	42.5 µM (inactive)	25.4 µM (inactive)	26.9 µM (inactive)	40.7 µM (inactive)	58.7 µM (inactive)	> 100 µM (inactive)	94.2 µM (inactive)	43.4 µM (inactive)	37.1 µM (inactive)	42 µM (inactive)	42.3 µM (inactive)	24.3 µM (inactive)	40.6 µM (inactive)	39.4 µM (inactive)	36.4 µM (inactive)	29.4 µM (inactive)	46.3 µM (inactive)	> 100 µM (inactive)
C/C(=N\NC(=S)NNC(=S)N(C)c1ccccc1)c1ccccn1	1.11 µM (active)	5.68 µM (inactive)	2.31 µM (inactive)	2.66 µM (inactive)	2.52 µM (inactive)	0.885 µM (active)	6.76 µM (inactive)	6.22 µM (inactive)	4.25 µM (inactive)	0.628 µM (active)	0.538 µM (active)	0.544 µM (active)	1.02 µM (active)	1.75 µM (inactive)	1.41 µM (inactive)	1.3 µM (inactive)	0.912 µM (active)	0.454 µM (active)	3.14 µM (inactive)	24 µM (inactive)
CCOC(=O)C12CC(C)=C(C)CC1CCCc1ccccc12 (centres undefined)	32.7 µM (inactive)	15.5 µM (inactive)	21.2 µM (inactive)	39.4 µM (inactive)	13.5 µM (inactive)	38.3 µM (inactive)	28.8 µM (inactive)	14.2 µM (inactive)	30.8 µM (inactive)	18.8 µM (inactive)	28.9 µM (inactive)	17.5 µM (inactive)	34 µM (inactive)	32.5 µM (inactive)	24.5 µM (inactive)	31.5 µM (inactive)	12.5 µM (inactive)	30.3 µM (inactive)	43.3 µM (inactive)	21.4 µM (inactive)
COc1ccc(N2C(=O)/C(=C/c3ccc(N(CCC#N)CCC#N)cc3)N=C2c2ccccc2)cc1	> 100 µM (inactive)	> 100 µM (inactive)	> 100 µM (inactive)	> 100 µM (inactive)	> 100 µM (inactive)	> 100 µM (inactive)	> 100 µM (inactive)	> 100 µM (inactive)	> 100 µM (inactive)	> 100 µM (inactive)	> 100 µM (inactive)	> 100 µM (inactive)	> 100 µM (inactive)	> 100 µM (inactive)	> 100 µM (inactive)	> 100 µM (inactive)	> 100 µM (inactive)	> 100 µM (inactive)	> 100 µM (inactive)	> 100 µM (inactive)
Nc1c(-c2cccc3ccccc23)c2ccc([N+](=O)[O-])cc2c(=O)n1-c1nc2ccccc2s1	3.32 µM (inactive)	3.82 µM (inactive)	6.93 µM (inactive)	2.26 µM (inactive)	3.23 µM (inactive)	7.21 µM (inactive)	0.875 µM (active)	5.37 µM (inactive)	14.1 µM (inactive)	3.16 µM (inactive)	2.16 µM (inactive)	3.94 µM (inactive)	7.57 µM (inactive)	9.82 µM (inactive)	2.41 µM (inactive)	5.64 µM (inactive)	1.02 µM (active)	11.7 µM (inactive)	14.3 µM (inactive)	14.3 µM (inactive)
COC(=O)C(CCC1CC(OC)N(C(=O)OCc2ccccc2)C1)/N=C/c1ccccc1 (centres undefined)	83 µM (inactive)	26.1 µM (inactive)	45.2 µM (inactive)	> 100 µM (inactive)	59.4 µM (inactive)	> 100 µM (inactive)	> 100 µM (inactive)	47 µM (inactive)	> 100 µM (inactive)	> 100 µM (inactive)	96.2 µM (inactive)	36.1 µM (inactive)	> 100 µM (inactive)	62.1 µM (inactive)	> 100 µM (inactive)	> 100 µM (inactive)	27.6 µM (inactive)	54.7 µM (inactive)	> 100 µM (inactive)	> 100 µM (inactive)
CC(NC(NC(C)C12CC3CC(CC(C3)C1)C2)=C(C(Cl)=C(Cl)Cl)[N+](=O)[O-])C12CC3CC(CC(C3)C1)C2 (centres undefined)	6.31 µM (inactive)	15 µM (inactive)	9.08 µM (inactive)	12 µM (inactive)	3.58 µM (inactive)	32.7 µM (inactive)	43.4 µM (inactive)	4.5 µM (inactive)	26.4 µM (inactive)	28.2 µM (inactive)	2.77 µM (inactive)	9.71 µM (inactive)	45 µM (inactive)	8.3 µM (inactive)	> 26.2 µM (inactive)	13 µM (inactive)	> 36.7 µM (inactive)	16.4 µM (inactive)	24 µM (inactive)	32.1 µM (inactive)
